Laboratory results as given in publication PMC7660103, “Discovery of Novel 3-Cyanopyridines as Survivin Modulators and Apoptosis Inducers” (Molecules, 2020).

Columns and labels:
[1] = tested on: prostate carcinoma (PC-3) cells; experiment: SRB cytotoxicity assay, PC-3; format: cell-based, human; conditions: for IC50: SRB assay, 72 h, mean ± SD of three experiments; for Selectivity Index PC-3: SI = IC50 on WI-38/IC50 on PC-3
Experimental: (§1) In the present work, sulforhodamine B (SRB) colorimetric assay was done to evaluate the cytotoxic activity of the synthesized 3-cyano pyridines 4a–4e, 5a–5e, and 6a–6e on three human cancer cell lines: prostate carcinoma (PC-3), breast cancer (MDA-MB-231) and hepatocellular carcinoma (HepG2) cell lines. 5-FU was used as a standard drug for comparison.
(§2) Human cancer cells were obtained from Nawah Scientific Inc. (Mokatam, Cairo, Egypt). Cells were maintained in DMEM media containing […] streptomycin, 100 units/mL penicillin, and 10% heat-inactivated fetal bovine serum in humified, 5% (v/v) CO2 atmosphere at 37 °C.
(§3) Cell viability was estimated using the SRB assay. Aliquots of 100 µL cell suspension (5 × 10^3 cells) in 96-well plates were incubated in complete media for 24 h. Cells were treated with a second aliquot of 100 µL media containing various concentrations of the tested compounds (0.01, 0.1, 1, 10, and 100 μM). After 72 h, cells were fixed by replacing media with 15 µL of 10% TCA and then incubated at 4 °C for 1 h. After that, TCA solution was removed, and the cells were washed 5 times with distilled water. Aliquots of 70 µL SRB solution (0.4% w/v) were added and incubated in a dark place at room temperature for 10 min. Plates were washed 3 times with 1% acetic acid and allowed to air dry overnight. Then, 150 µL of TRIS (10 mM) was added to dissolve protein-bound SRB stain. The absorbance was measured at 540 nm using BMG LABTECH®-FLUO star Omega microplate reader (Ortenberg, Germany).

[2] = tested on: hepatocellular carcinoma (HepG2) cells; experiment: SRB cytotoxicity assay, HepG2; format: cell-based, human; conditions: for IC50: SRB assay, 72 h, mean ± SD of three experiments; for Selectivity Index HepG2: SI = IC50 on WI-38/IC50 on HepG2
Experimental: as §1, §2, §3

[3] = tested on: breast cancer (MDA-MB-231) cells; experiment: SRB cytotoxicity assay, MDA-MB-231; format: cell-based, human; conditions: for IC50: SRB assay, 72 h, mean ± SD of three experiments; for Selectivity Index MDA-MB-231: SI = IC50 on WI-38/IC50 on MDA-MB-231
Experimental: as §1, §2, §3

normal cell line WI-38 = experiment: SRB cytotoxicity assay, normal cell line WI-38; format: cell-based
Experimental: The cytotoxicity of the newly synthesized compounds on the normal cell line WI-38 was also evaluated in order to examine the safety of these compounds.
as §3

[4] = Homo sapiens, WI-38, mean ± SD of three experiments

| melting point [°C] | SMILES | IC50 ([1]; Homo sapiens, PC-3) [µM] | Selectivity Index PC-3 [1] | IC50 ([2]; Homo sapiens, HepG2, 72 h) [µM] | Selectivity Index HepG2 [2] | IC50 ([3]; Homo sapiens, MDA-MB-231, 72 h) [µM] | Selectivity Index MDA-MB-231 [3] | IC50 (normal cell line WI-38; [4]) [µM] | IC50 [1] [µM] | IC50 [2] [µM] | IC50 [3] [µM] | IC50 (normal cell line WI-38; mean ± SD of three experiments) [µM] |
| --- | --- | --- | --- | --- | --- | --- | --- | --- | --- | --- | --- | --- |
| – | N#Cc1c(-c2ccc(Br)cc2)cc(-c2ccc(OCc3ccc(F)cc3)cc2)nc1N [Compound 4d, 2-Amino-4-(4-bromophenyl)-6-(4-((4-fluorobenzyl)oxy)phenyl)nicotinonitrile] | 53 ± 1.12 | 1.96 | 66 ± 0.12 | 1.57 | 30 ± 0.18 | 3.46 | 104 ± 3.16 | – | – | – | – |
| – | N#Cc1c(-c2ccccc2)cc(-c2ccc(OCc3ccc(F)cc3)cc2)[nH]c1=O [Compound 5a, 6-(4-((4-Fluorobenzyl)oxy)phenyl)-2-oxo-4-phenyl-1,2-dihydropyridine-3-carbonitrile] | 47.5 ± 0.611 | 3.66 | 30 ± 0.59 | 5.80 | 52 ± 0.4 | 3.34 | 174 ± 4.62 | – | – | – | – |
| 125 to 127 | N#Cc1c(-c2ccc(F)cc2)cc(-c2ccc(OCc3ccc(F)cc3)cc2)nc1N [Compound 4b, 2-Amino-6-(4-((4-fluorobenzyl)oxy)phenyl)-4-(4-fluorophenyl)nicotinonitrile] | > 100 | – | > 100 | – | > 100 | – | 127 ± 3.6 | – | – | – | – |
| – | N#Cc1c(-c2ccc(Cl)cc2)cc(-c2ccc(OCc3ccc(F)cc3)cc2)nc1N [Compound 4c, 2-Amino-4-(4-chlorophenyl)-6-(4-((4-fluorobenzyl)oxy)phenyl)nicotinonitrile] | > 100 | – | 62 ± 0.61 | 2.20 | > 100 | – | 137 ± 4.15 | – | – | – | – |
| – | COc1ccc(-c2cc(-c3ccc(OCc4ccc(F)cc4)cc3)nc(N)c2C#N)cc1 [Compound 4e, 2-Amino-6-(4-((4-fluorobenzyl)oxy)phenyl)-4-(4-methoxyphenyl)nicotinonitrile] | > 100 | – | > 100 | – | > 100 | – | 94.7 ± 2.5 | – | – | – | – |
| – | N#Cc1c(-c2ccc(Br)cc2)cc(-c2ccc(OCc3ccc(F)cc3)cc2)[nH]c1=O [Compound 5d, 4-(4-Bromophenyl)-6-(4-((4-fluorobenzyl)oxy)phenyl)-2-oxo-1,2-dihydropyridine-3-carbonitrile] | 30.2 ± 0.85 | 5.99 | 27.3 ± 0.74 | 6.63 | 34.8 ± 0.9 | 5.20 | 181 ± 4.55 | – | – | – | – |
| – | O=c1[nH]cc(F)c(=O)[nH]1 [Compound 5-FU, reference compound] | – | – | – | – | – | – | – | 8.83 ± 0.09 | 7.51 ± 0.11 | 9.35 ± 0.74 | 7.91 ± 1.8 |
| – | N#Cc1c(-c2ccccc2)cc(-c2ccc(OCc3ccc(F)cc3)cc2)nc1N [Compound 4a, 2-Amino-6-(4-((4-fluorobenzyl)oxy)phenyl)-4-phenylnicotinonitrile] | > 100 | – | 109 ± 0.35 | 1.50 | > 100 | – | 164 ± 4.5 | – | – | – | – |
| – | N#Cc1c(-c2ccc(Cl)cc2)cc(-c2ccc(OCc3ccc(F)cc3)cc2)[nH]c1=S [Compound 6c, 4-(4-Chlorophenyl)-6-(4-((4-fluorobenzyl)oxy)phenyl)-2-thioxo-1,2-dihydropyridine-3-carbonitrile] | 41.9 ± 0.61 | 2.13 | 38 ± 0.94 | 2.35 | 42 ± 0.48 | 2.13 | 89.6 ± 2.75 | – | – | – | – |
| – | N#Cc1c(-c2ccc(Br)cc2)cc(-c2ccc(OCc3ccc(F)cc3)cc2)[nH]c1=S [Compound 6d, 4-(4-Bromophenyl)-6-(4-((4-fluorobenzyl)oxy)phenyl)-2-thioxo-1,2-dihydropyridine-3-carbonitrile] | 99 ± 0.19 | 1.47 | 86 ± 0.15 | 1.69 | 71.2 ± 0.56 | 2.04 | 146 ± 4.55 | – | – | – | – |
| – | N#Cc1c(-c2ccc(F)cc2)cc(-c2ccc(OCc3ccc(F)cc3)cc2)[nH]c1=O [Compound 5b, 6-(4-((4-Fluorobenzyl)oxy)phenyl)-4-(4-fluorophenyl)-2-oxo-1,2-dihydropyridine-3-carbonitrile] | 34.2 ± 0.45 | 3.84 | 21.8 ± 0.67 | 6.02 | 26.3 ± 0.73 | 4.99 | 132 ± 4.12 | – | – | – | – |
| – | N#Cc1c(-c2ccc(F)cc2)cc(-c2ccc(OCc3ccc(F)cc3)cc2)[nH]c1=S [Compound 6b, 6-(4-((4-Fluorobenzyl)oxy)phenyl)-4-(4-fluorophenyl)-2-thioxo-1,2-dihydropyridine-3-carbonitrile] | 60 ± 0.93 | 3.42 | 41 ± 0.69 | 5.01 | 66.7 ± 0.12 | 3.08 | 206 ± 4.73 | – | – | – | – |
| – | N#Cc1c(-c2ccccc2)cc(-c2ccc(OCc3ccc(F)cc3)cc2)[nH]c1=S [Compound 6a, 6-(4-((4-Fluorobenzyl)oxy)phenyl)-4-phenyl-2-thioxo-1,2-dihydropyridine-3-carbonitrile] | > 100 | – | 60 ± 0.1 | 1.62 | 72 ± 0.52 | 1.35 | 97.4 ± 2.88 | – | – | – | – |
| – | COc1ccc(-c2cc(-c3ccc(OCc4ccc(F)cc4)cc3)[nH]c(=S)c2C#N)cc1 [Compound 6e, 6-(4-((4-Fluorobenzyl)oxy)phenyl)-4-(4-methoxyphenyl)-2-thioxo-1,2-dihydropyridine-3-carbonitrile] | 35.9 ± 0.92 | 2.89 | 40.3 | 2.57 | 23.4 | 4.43 | 104 ± 3.16 | – | 40.3 ± 0.99 | 23.4 ± 0.7 | – |
